The results in this text go back to ChEMBL document CHEMBL1154712, “Synthesis and cytotoxic activity of psorospermin and acronycine analogues in the 3-propyloxy-acridin-9(10H)-one and -benzo[b]acridin-125H-one series” (Eur J Med Chem, 2010).

Assay [1] has as its system L1210. Nature of the assay: Cytotoxicity against mouse L1210 cells after 48 hrs by microculture tetrazolium assay. To be noted: L1210, 48 h. In kind it is functional, cell-based.
Assay [2] can be described thus: Cytotoxicity against human KB3-1 cells after 96 hrs by microculture tetrazolium assay. To be noted: KB 3-1, 96 h. In kind it is functional, cell-based.

With `COc1cc(OCC(O)COC(C)=O)cc2c1c(=O)c1cc3ccccc3cc1n2C` (racemic), the IC50 stood at 6.2 µM in assay [1] and 5.8 µM in assay [2].
The matching figures for `COc1cc(OCC(COC(C)=O)OC(C)=O)cc2c1c(=O)c1ccccc1n2C` (racemic): 40.6 µM and 37.8 µM.
Turning to `COc1cc2c(c3c1c(=O)c1cc4ccccc4cc1n3C)[C@@H](OC(C)=O)[C@@H](OC(C)=O)C(C)(C)O2` (relative stereo), the IC50 in assay [2] came out at 0.09 µM.
As to `COc1cc(OCC(O)CO)cc2c1c(=O)c1ccccc1n2C` (racemic), the IC50 in assay [1] came to 59.8 µM; in assay [2] it was 47.5 µM.
`COc1cc2c(c3c1c(=O)c1ccccc1n3C)C[C@H]([C@@]1(C)CO1)O2` (racemic) had an IC50 in assay [2] of 0.06 µM.
Turning to `COc1cc(OCC2COC(=O)O2)cc2c1c(=O)c1ccccc1n2C` (racemic), the values for the IC50 in assay [1] and in assay [2] were 37.2 µM and 24.1 µM, respectively.
The matching figures for `COc1cc2c(c3c1c(=O)c1cc4ccccc4cc1n3C)C[C@H]([C@@]1(C)CO1)O2` (racemic): 0.04 µM and 0.08 µM.
`COc1cc(OCC(COC(C)=O)OC(C)=O)cc2c1c(=O)c1cc3ccccc3cc1n2C` (racemic): the concentration for half-maximal inhibition (IC50) in assay [1] amounted to 3.1 µM; in assay [2], 7.9 µM.
The matching figures for `C=CCOc1cc(OC)c2c(=O)c3cc4ccccc4cc3n(C)c2c1`: 33 µM and 3.7 µM.
For `COc1cc(OCC2COC(=O)O2)cc2c1c(=O)c1cc3ccccc3cc1n2C` (racemic) the same measures were 18.8 µM and 23.2 µM.
For the compound `COc1cc(OCC(O)COC(C)=O)cc2c1c(=O)c1ccccc1n2C` (racemic), the IC50 in assay [1] came out at 32.4 µM; in assay [2], 22.5 µM.
The matching figures for `COc1cc(OCC(O)CO)cc2c1c(=O)c1cc3ccccc3cc1n2C` (racemic): 79 µM and 65 µM.
For `COc1cc(OCC2CO2)cc2c1c(=O)c1ccccc1n2C` (racemic) the same measures were 0.09 µM and 0.12 µM.
The matching figures for `C=CCOc1cc(OC)c2c(=O)c3ccccc3n(C)c2c1`: 13.4 µM and 10.4 µM.
Take `COc1cc(OCC2CO2)cc2c1c(=O)c1cc3ccccc3cc1n2C` (racemic): the figures for the IC50 in assay [1] and in assay [2] were 0.03 µM and 0.2 µM, respectively.
